The structures appear in SMILES notation.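 Briefly, cells in 96-well plates were exposed to five compound concentrations for 48 h, and endpoints were estimated by linear interpolation. At the TGI there is no net growth.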

Assay in all cases: inhibition of tumour cell growth, NCI panel, 48 h
For experiment [1], the system named is A498 renal.
Experiment [2] deals with BT-549 breast.
The subject of experiment [3] is CAKI-1 renal.
In experiment [4] the test system is EKVX NSCLC.
The subject of experiment [5] is HCC-2998 colon.
Experiment [6] relates to HCT-116 colon.
Experiment [7] concerns K-562 leukemia.
Experiment [8] deals with LOX IMVI melanoma.
Experiment [9] deals with MALME-3M melanoma.
Experiment [10] relates to MCF7 breast.
The subject of experiment [11] is MDA-MB-435.
In experiment [12] the test system is NCI-H460 lung.
The subject of experiment [13] is OVCAR-3 ovarian.
The subject of experiment [14] is PC-3 prostate.
Experiment [15] relates to SF-539 CNS.
For experiment [16], the system named is SK-MEL-2 melanoma.
The test system of experiment [17] is SK-MEL-5 melanoma.
The subject of experiment [18] is SK-OV-3 ovarian.
Experiment [19] deals with SN12C renal.
In experiment [20] the test system is SNB-75 CNS.

Take `CC1OC(OC2C(O[C@H]3CC[C@@H]4C(=CC[C@@H]5[C@@]4(C)C(=O)C[C@]4(C)[C@@H]([C@H](C)CC[C@@H](O)C(C)(C)O)CC[C@@]54C)C3(C)C)OC(CO)C(O)C2O)C(O)C(O)C1O` (some centres undefined): the TGI in experiment [1], in [2], in experiment [3], in experiment [4], in experiment [5] and in experiment [6] was > 100 µM throughout. Also, the TGI in experiment [7], in [8], in [9], in experiment [10], in [11] and in [12] was > 100 µM throughout. In addition, the TGI in experiment [13], in experiment [14], in experiment [15], in experiment [16], in experiment [17] and in experiment [18] was > 100 µM throughout. Besides, the TGI in experiment [19] and in experiment [20] was > 100 µM throughout.

`O=C1C=Cc2c(Br)sc(Br)c21`: the TGI was > 100 µM in experiment [1]; > 100 µM in experiment [2]; 41.1 µM in [3]; 81 µM in [4]; 29.2 µM in experiment [5]; 77.1 µM in [6]. The TGI in [7] was 54.5 µM; in experiment [8], 48.4 µM; in [9] it was 64.6 µM; in [10], > 100 µM; in experiment [11] it was 46.1 µM; in [12], > 100 µM. For the same compound, the TGI was 32.3 µM in [13]; 49.7 µM in experiment [14]; > 100 µM in [15]; 70.3 µM in [16]; > 100 µM in experiment [17]; > 100 µM in [18]. The TGI in experiment [19] and in experiment [20] was > 100 µM each time.

For `O=[N+]([O-])C(=C(Cl)Cl)C(Cl)=C(Cl)Cl`, the TGI in experiment [1] turned out to be 14.9 µM; in [2], 0.528 µM; in [3] it was 0.699 µM; in experiment [4], 11.2 µM; in [5], 5.43 µM; in [6] it was 0.849 µM. Moreover, the TGI in [7] came out at 0.118 µM; in [8], 0.0351 µM; in [9] it was 0.126 µM; in experiment [10], 0.992 µM; in [11] it was 1.07 µM; in experiment [12], 5.21 µM. The TGI was 2.24 µM in experiment [13]; 4.66 µM in [14]; 3.45 µM in experiment [15]; 3.24 µM in [16]; 1.83 µM in [17]; 9.51 µM in experiment [18]. For the same compound, the TGI in [19] was found to be 2.22 µM; in experiment [20], 3.35 µM.

Turning to `Cc1ccc(Cc2n[nH]c(=O)[nH]2)cc1`, the TGI in experiment [1], in experiment [2], in [3], in experiment [4], in [5] and in experiment [6] was > 100 µM in each case. Besides, the TGI in experiment [7], in [8], in experiment [9], in experiment [10], in experiment [11] and in [12] was > 100 µM in each case. Also, the TGI in experiment [13], in experiment [14], in experiment [15], in experiment [16], in [17] and in [18] was > 100 µM in each case. Moreover, the TGI in experiment [19] and in experiment [20] was > 100 µM each time.

In the case of `NC(N)=Nc1ccc(-c2ccc(N=C(N)N)cc2)cc1`, the TGI in experiment [1], in experiment [2], in [3], in experiment [4], in experiment [5] and in [6] was > 100 µM each time. Also, the TGI is > 100 µM in experiment [7]; > 100 µM in experiment [8]; 62.6 µM in [9]; > 100 µM in experiment [10]; > 100 µM in [11]; > 100 µM in experiment [12]. The TGI in [13] is > 100 µM; in experiment [14], 75.9 µM; in [15] it was 74.7 µM; in experiment [16], 99.7 µM; in experiment [17] it was 54.1 µM; in experiment [18], > 100 µM. The TGI in experiment [19] is > 100 µM; in [20], 86.1 µM.

On to `COc1cccc2c1C(=O)C1=C(C2=O)C(O)CC(C)(C)O1` (centres undefined), for which the TGI is > 100 µM in [1]; > 100 µM in [2]; > 100 µM in [3]; > 100 µM in [4]; > 100 µM in experiment [5]; 63 µM in experiment [6]. Moreover, the TGI in experiment [7] was 50.3 µM; in experiment [8], 57.3 µM; in experiment [9] it was 33.7 µM; in [10], > 100 µM; in experiment [11], 35.2 µM; in experiment [12] it was > 100 µM. For the same compound, the TGI is 40.5 µM in experiment [13]; 68.4 µM in experiment [14]; > 100 µM in experiment [15]; > 100 µM in [16]; 28.3 µM in [17]; > 100 µM in experiment [18]. The TGI in experiment [19] and in experiment [20] was > 100 µM throughout.

For the compound `Cn1c2ccc([N+](=O)[O-])cc2c(=O)n1Cc1ccccc1F`, the TGI in experiment [1], in experiment [2], in experiment [3], in experiment [4], in experiment [5] and in [6] was > 100 µM in each case. The TGI in [7], in experiment [8], in experiment [9], in experiment [10], in [11] and in experiment [12] was > 100 µM each time. For the same compound, the TGI in [13] is > 100 µM; in experiment [14] it was > 100 µM; in [15], 79.6 µM; in experiment [16] it was > 100 µM; in experiment [17] it was > 100 µM; in [18] it was > 100 µM. Besides, the TGI in [19] is > 100 µM; in experiment [20], 70.2 µM.

As to `Cc1c(-c2ccc(O)cc2)n(CCCCCCNCCOC(=O)NCCCc2ccc(N(CCCl)CCCl)cc2)c2ccc(O)cc12`, the TGI in experiment [1] was 28.7 µM; in experiment [2], 26.7 µM; in [3], 25.7 µM; in experiment [4], 9.89 µM; in experiment [5], 3.52 µM; in experiment [6], 2.94 µM. For the same compound, the TGI in experiment [8] worked out at 2.97 µM; in experiment [9], 3.12 µM; in experiment [10], 2.23 µM; in experiment [11] it was 3.21 µM; in experiment [12], 5.05 µM; in [13] it was 6.41 µM. Further, the TGI in experiment [14] was 11.4 µM; in experiment [15] it was 3.11 µM; in [16] it was 23.8 µM; in experiment [17], 4.06 µM; in experiment [18], 22.4 µM; in experiment [19] it was 6.22 µM. For the same compound, the TGI in [20] was found to be 14.1 µM.

Regarding `CN(CC(=O)N1CC(CCl)c2ccc([N+](=O)[O-])cc21)CC(=O)N1CC(CCl)c2ccc([N+](=O)[O-])cc21` (centres undefined), the TGI in experiment [1], in experiment [2], in experiment [3], in experiment [4], in [5] and in experiment [6] was > 100 µM in each case. In addition, the TGI in experiment [7], in [8], in experiment [9], in experiment [10], in experiment [11] and in experiment [12] was > 100 µM each time. Moreover, the TGI in [13], in experiment [14], in experiment [15], in experiment [16], in experiment [17] and in [18] was > 100 µM throughout. The TGI in experiment [19] and in experiment [20] was > 100 µM in each case.

As for `CN(Cc1cnc2nc(N)nc(N)c2n1)c1ccc(C(=O)NCCS(=O)(=O)O)cc1`, the TGI in experiment [1], in experiment [2], in experiment [3], in experiment [4], in experiment [5] and in [6] was > 100 µM throughout. For the same compound, the TGI in [7], in [8], in experiment [9], in experiment [10], in experiment [11] and in experiment [12] was > 100 µM in each case. The TGI in experiment [13], in [14], in [15], in [16], in experiment [17] and in [18] was > 100 µM throughout. For the same compound, the TGI in experiment [19] and in experiment [20] was > 100 µM each time.

In the case of `CC(C)(C)c1cc(C(=O)/C=C/c2c(Cl)cccc2Cl)cc(C(C)(C)C)c1O`, the TGI is > 100 µM in [1]; 61.7 µM in experiment [2]; 54.9 µM in experiment [3]; 63.3 µM in experiment [4]; 28.1 µM in experiment [5]; 23.2 µM in [6]. Also, the TGI in experiment [7] was > 100 µM; in experiment [8], 28.3 µM; in experiment [9] it was 37.6 µM; in experiment [10] it was 46 µM; in experiment [11] it was 54.4 µM; in experiment [12] it was 24 µM. For the same compound, the TGI in experiment [13] is 25.3 µM; in experiment [14] it was > 63.9 µM; in experiment [15] it was 31.6 µM; in [16], 26.4 µM; in experiment [17] it was 23.9 µM; in experiment [18] it was > 100 µM. For the same compound, the TGI in experiment [19] is > 75.2 µM; in experiment [20], 34.3 µM.

Take `C1=CC2C=CC(C=C1)P2c1ccccc1` (centres undefined): the TGI in experiment [1], in experiment [2], in [3], in experiment [4], in experiment [5] and in [6] was > 100 µM in each case. The TGI in [7], in experiment [8], in [9], in experiment [10], in experiment [11] and in experiment [12] was > 100 µM throughout. The TGI in experiment [13], in [14], in [15], in [16], in experiment [17] and in [18] was > 100 µM each time. Also, the TGI in experiment [19] and in [20] was > 100 µM in each case.

As for `COc1c2c(cc3c1C(=O)c1c(O)cccc1C3=O)CC(O)CC2` (centres undefined), the TGI is > 100 µM in experiment [1]; 43.1 µM in experiment [2]; > 100 µM in [3]; > 100 µM in experiment [4]; > 100 µM in experiment [5]; > 100 µM in experiment [6]. Also, the TGI in experiment [7], in [8], in [9], in experiment [10], in [11] and in experiment [12] was > 100 µM throughout. For the same compound, the TGI in experiment [13] is > 100 µM; in [14] it was > 100 µM; in experiment [15], > 100 µM; in experiment [16] it was > 100 µM; in experiment [17], > 100 µM; in [18], 59 µM. Moreover, the TGI in [19] and in [20] was > 100 µM each time.

In the case of `CO[C@]1(c2ccc([N+](=O)[O-])cc2)Oc2ccccc2C(=O)[C@@]1(Nc1ccc(C=O)cc1)OC`, the TGI in experiment [1], in [2], in experiment [3], in experiment [4], in experiment [5] and in [6] was > 10 µM in each case. In addition, the TGI in experiment [7], in experiment [8], in experiment [9], in [10], in experiment [11] and in [12] was > 10 µM in each case. The TGI in experiment [13], in [14], in experiment [15], in experiment [16], in [17] and in experiment [18] was > 10 µM in each case. Also, the TGI in experiment [19] and in [20] was > 10 µM in each case.

For the origin of these results see PubChem BioAssay (NCI).
